Source: patent US10485256B2, “Stevia sweetener with improved solubility with a cyclodextrin” (EPC Natural Products Co., Ltd., priority 2014, dated 2019)

Tests used:
[1] = Stability test: period that the system remains in solution form, without precipitation; assay type: physicochemical; conditions: 25° C.; for stability (period the system remain a solution form, without precipitation): Concentration 1 weight %
Method: Concentration of RA was weight (g) in 100 g of water.
The stability test was performed at ambient temperature (25° C.), and was in water.
The acidic aqueous conditions were formulated with citric acid and water, and the pH was 3.0.
Concentration of RA+RD was weight (g) in 100 g of water.
The stability test was performed at ambient temperature (25° C.) and was in water.
Concentration of RA+RB+RD was weight (g) in 100 g of water.
Concentration of RB or RD was weight (g) in 100 g of water.

[2] = Dissolution property at room temperature; assay type: physicochemical; conditions: concentration 1%; without a solublizer (no cyclodextrin); water
[3] = γ-cyclodextrin mole ratio 1, water

Row | stability (period the system remain a solution form, without precipitation) [1, 3] [h] | formation of a solution [2] | stability (period the system remains in solution form, without precipitation) ([1]; acidic (citric acid, pH 3.0), RA 3.5 weight %, γ-cyclodextrin mole ratio 1) [h] | stability (period the system remains in solution form, without precipitation) ([1]; neutral, RA 3 weight %, γ-cyclodextrin mole ratio 0.5, water) [h] | stability (period the system remains in solution form, without precipitation) ([1]; neutral, RA 3 weight %, γ-cyclodextrin mole ratio 0.6, water) [h] | stability (period the system remains in solution form, without precipitation) ([1]; neutral, RA 3 weight %, γ-cyclodextrin mole ratio 0.7, water) [h] | stability (period the system remains in solution form, without precipitation) ([1]; neutral, RA 3 weight %, γ-cyclodextrin mole ratio 0.8, water) [h] | stability (period the system remains in solution form, without precipitation) ([1]; neutral, RA 3 weight %, γ-cyclodextrin mole ratio 0.85, water) [h] | stability (period the system remains in solution form, without precipitation) ([1]; neutral, RA 3.5 weight %, γ-cyclodextrin mole ratio 0, water) [h] | stability (period the system remains in solution form, without precipitation) ([1]; neutral, RA 3.5 weight %, γ-cyclodextrin mole ratio 0.85, water) [h] | stability (period the system remains in solution form, without precipitation) ([1]; neutral, RA 3.5 weight %, γ-cyclodextrin mole ratio 1, water) [h] | Molecule
1 | 48 | did not form a solution |  |  |  |  |  |  |  |  |  | C=C1C[C@@]23CC[C@H]4[C@@](C)(CCC[C@@]4(C)C(=O)O[C@@H]4O[C@H](CO)[C@@H](O)[C@H](O)[C@H]4O[C@@H]4O[C@H](CO)[C@@H](O)[C@H](O)[C@H]4O)[C@@H]2CC[C@]1(O[C@@H]1O[C@H](CO)[C@@H](O)[C@H](O[C@@H]2O[C@H](CO)[C@@H](O)[C@H](O)[C@H]2O)[C@H]1O[C@@H]1O[C@H](CO)[C@@H](O)[C@H](O)[C@H]1O)C3 [RD, Rebaudioside D]
2 | 0.333 | did not form a solution |  |  |  |  |  |  |  |  |  | Rebaudioside B [RB]
3 |  |  | 120 | 1 | 2 | 24 | 52 | 92 | 2 | 160 | 336 | C=C1C[C@@]23CC[C@H]4[C@@](C)(CCC[C@@]4(C)C(=O)O[C@@H]4O[C@H](CO)[C@@H](O)[C@H](O)[C@H]4O)[C@@H]2CC[C@]1(O[C@@H]1O[C@H](CO)[C@@H](O)[C@H](O[C@@H]2O[C@H](CO)[C@@H](O)[C@H](O)[C@H]2O)[C@H]1O[C@@H]1O[C@H](CO)[C@@H](O)[C@H](O)[C@H]1O)C3 [RA, Rebaudioside A]
